Measured values published in patent US5225416A, “1,2,3,6-tetrahydropyridine derivatives useful for improving cerebral blood circulation” (Richter Gedeon Vegyeszeti Termekek Gyara Rt., priority 1990, dated 1993).

Legend:
Type in all cases: in vivo
[1] = tested on: male (CFLP LATI) mice; experiment: Cytotoxic hypoxia (KCN), antihypoxic effect in mice; conditions: Mus musculus, po, read-out: ED50 cytotoxic hypoxia
[2] = tested on: male (CFLP LATI) mice; experiment: Anoxic asphyxia (asphyxial anoxia), antihypoxic effect in mice; conditions: Mus musculus, po, read-out: ED50 asphyxial anoxia
Procedure: (§1) Male (CFLP LATI) mice weighing 24-26 g and male spontaneous hypertensive rats (SHR) weighing 160-180 g were used as test animals. The test compounds were administered orally in a volume of 10 ml/kg 1 hour before the test.
(§2) The mice were treated after 16 hours fasting with the oral dosage of the test compounds. 1 hour after the treatment the animals were placed to 100 ml sealed glasses and the survival time of the animals was measured. The groups consisting of 10 animals and treated with the test compounds were considered protected if the average survival time was by 30 percent longer than the survival of the group treated with placebo. From the percentage of the surviving animals the 50% effective dosage (ED50) was calculated by probit analysis.

[3] = tested on: male spontaneous hypertensive rats (SHR); experiment: Hypobaric hypoxia in SHR rats; conditions: Rattus norvegicus, po, 1 hour before the test, 22.66 kPa, protected = survival 30 percent longer, 95% fiducial limit on next line
Procedure: as §1
(§3) The rats were placed to a 6-liter exsiccator 1 hour after pretreatment to each exsiccator 2 rats were placed. The pressure was reduced in the exsiccator within 20 seconds to 22.66 kPa (170 Hgmm) and the survival time was measured from this time on until the last breathing movement. Animals which survived by 30 percent longer than the average survival of the control group were considered as protected. From the percentage of the protected animals the ED50 i.e. the 50% effective dosage was calculated by probit analysis with the pertaining 95% fiducial limit.

[4] = tested on: male (CFLP LATI) mice; experiment: Hypobaric hypoxia (HH), antihypoxic effect in mice; conditions: Mus musculus, po, read-out: ED50 hypobaric hypoxia
Procedure: as §1
Animals surviving by 100% longer than the average survival of the control group were considered as protected.

[5] = tested on: mice and spontaneous hypertensive rats; experiment: Hypoxic models taken together (asphyxial anoxia, hypobaric hypoxia, cytotoxic hypoxia, hypobaric hypoxia SHR)
Procedure: as §1, §2
After 16 hours of fasting and 1 hour of pretreatment the animals were placed to a 6-liter exsiccator and the pressure was reduced within 20 seconds to 22.66 kPa (170 Hgmm), and from this time on the survival time was measured until the last breathing movement. Animals surviving by 100% longer than the average survival of the control group were considered as protected.
The animals were treated after 1 hour pretreatment with an i.v. dosage of 5 mg/kg potassium cyanide. The survival time was measured from the administration of potassium cyanide to the last breathing movement. The protected condition was determined according to the method described for anoxic asphyxia.
as §3
For testing the active ingredients various forms of hypoxia were used. In case of asphyxial anoxia the complete loss of the oxygen supply, at hypobaric hypoxia the reducing of the oxygen saturation condition of the haemoglobin and in case of cytotoxic hypoxia the blocking of the mytochondrial breathing enzime cause a functional disorganisation and necrosis of the cells, even death in otherwise healthy mice. The spontaneous hypertensive rats are more sensitive to the hypoxial influences than the normotensive animals as the survival chance of a person suffering from hypertension is also worse after suffering from hypoxial influences.

[6] = 1 hour before the test, mice, KCN 5 mg/kg i.v., 95% fiducial limit on next line
[7] = 1 hour before the test, mice, protected = survival 30 percent longer, probit analysis
[8] = 1 hour before the test, mice, 22.66 kPa, protected = survival 100% longer, 95% fiducial limit on next line

Work on OC(CCN1CC=C(c2ccccc2)CC1)c1ccc(Cc2ccc(Cl)cc2)cc1 (stereo not drawn) [Example 0207724] yielded an ED50 [1, 6] of 17.5 mg/kg, an ED50 [2, 7] of 50 mg/kg and an ED50 [3] of 8.2 mg/kg. For the same compound, the ED50 [4, 8] was 27.5 mg/kg.

CC[C@]12CCCN3CCc4c(n(c5ccccc45)[C@@](O)(C(=O)OC)C1)[C@@H]32 [Vincamin, (+)-14β-hydroxy-14α-methoxy-carbonyl-14,15-dihydro-eburnamenine] gave an ED50 [1, 6] of 27 mg/kg, an ED50 [2, 7] of 51.1 mg/kg and an ED50 [3] of 27.9 mg/kg. The “effect in all hypoxic models used” value ([5]; all hypoxic models, in words) was “effective”, the “survival time of the animals” value ([5]; all hypoxic models, in words) was “prolonged” and the ED50 [4, 8] was 60.7 mg/kg.

In the case of NC(=O)CN1CCCC1=O [Piracetam, 2-oxo-1-pyrrolidinyl-acetic amide], the ED50 [1] is reported as 132 mg/kg, the ED50 [2] is reported as 100 mg/kg and the “dosage relative to that of vincamine” value ([5]; antihypoxic effect on two models) is reported as 5-10 times. The antihypoxic effect ([5]; number of models on which the effect could be proved) was “could be proved on two models” and the ED50 [4] was 100 mg/kg.
